From patent US20160052898A1, “NOVEL COMPOUNDS” (BAYER PHARMA AKTIENGESELLSCHAFT, priority 2013, published 2016)

How the values were obtained:
Assay type in all cases: cell-based
[1] = test system: constitutive active colorectal cancer cell (CRC) Wnt pathway; assay: HCT116 Super TopFlash cellular reporter assay (constitutive active Wnt pathway); conditions: Homo sapiens, HCT-116, 36 h, HCT116 TOP reporter cells, luciferase expression, 36 hours incubation, 50 μM to 15 nM
Outline: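 HCT116 cells (β-catenin ΔS45) stably carrying Super TopFlash, with a parallel FOP-control line, were plated 24 h ahead. They were exposed 36 h at 37 °C, 5% CO2 to compound from a 50 μM–15 nM, 3.16-fold pre-dilution series in CAFTY buffer (pH 7.4, 2 mM Ca2+, 0.01% BSA). Wnt signalling was read as luciferase luminescence.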

[2] = test system: HCT116 FOP control reporter cell line; assay: HCT116 FOP control vector reporter assay (non-functional TCF elements); conditions: Homo sapiens, HCT-116, 36 h, HCT116 FOP control reporter cells, luciferase expression, 36 hours incubation, 50 μM to 15 nM; read-out: HCT116 FOPFlash IC50
Outline: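 Stable HCT116 line carrying the non-functional FOP luciferase construct, 10000 cells/well plated 24 hrs before. Compounds 50 μM to 15 nM (3.16-fold steps) in CAFTY buffer pH 7.4 with 2 mM Ca2+, 36 hours at 37° C; luciferase luminescence read.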

wildtype Wnt pathway = assay: HEK293 Super TopFlash cellular reporter assay, Wnt-3a stimulated (wildtype Wnt pathway); conditions: Homo sapiens; HEK293 TOP reporter cells, EC50 concentration of recombinant Wnt-3a, 16 hours incubation; read-out: HEK TOP OncoFlash IC50
Procedure: (§1) In order to determine the inhibitory activity of compounds for the WT Wnt signaling pathway, the Super TopFlash vector respectively FOP vector were cotransfected with pcDNA3 into HEK293 and stable transfected HEK293 cells were isolated by antibiotic selection. […] The recombinant human Wnt-3a was thereby used between 2500 and 5 ng/ml in two-fold dilution steps. […] Measurement of luciferase expression was done as described for the constitutive active Wnt assay.
In order to discover and characterize small molecules which inhibit the wildtype Wnt pathway, a cellular reporter assay was employed. The corresponding assay cell was generated by transfection of the mammalian cell line HEK293 (ATCC, #CRL-1573) with the Super TopFlash vector (Morin, Science 275, 1997, 1787-1790; Molenaar et al., Cell 86 (3), 1996, 391-399). The HEK293 cell line is cultivated at 37° C. and 5% CO2 in DMEM (Life Technologies, #41965-039), supplemented with 2 mM glutamine, 20 mM HEPES, 1.4 mM pyruvate, 0.15% Na-bicarbonate and 10% foetal bovine serum (GIBCO, #10270). Stable transfectants were generated by selection with 300 μg/ml Hygromycin.
(§2) In preparation of the assay, the two cell lines were plated 24 hours before beginning the test at 10000 cells per well in a 384 micro titre plate (MTP) in […] growth medium. […] The recombinant human Wnt-3a was thereby applied between 2500 and 5 ng/ml in two-fold dilution steps. Selective inhibitory activity for small molecules on the wildtype Wnt pathway was determined after parallel incubation of both (TOP and FOP) HEK293 reporter cell lines with a compound dilution series from 50 μM to 15 nM in steps of 3.16-fold dilutions in CAFTY buffer (130 mM NaCl, 5 mM KCl, 20 mM HEPES, 1 mM MgCl2, 5 mM NaHCO3, pH 7.4) containing 2 mM Ca^2+ and 0.01% BSA.
(§3) The compounds were thereby serially prediluted in 100% DMSO and thereafter 50 fold into the CAFTY compound dilution buffer (described above).

[3] = test system: HEK293 FOP control reporter cell line; assay: HEK293 FOP control vector reporter assay; conditions: Homo sapiens; HEK293 FOP control reporter cells, EC50 concentration of recombinant Wnt-3a, 16 hours incubation; read-out: HEK FOP IC50
Procedure: as §1
In a parallel approach, HEK293 cells were cotransfected with the FOP control vector and pcDNA3. The FOP vector is identical to the TOP construct, but it contains instead of functional TCF elements a randomized, non-functional sequence. For this transfection a stable transfected cell line was generated as well, based on selection with Geneticin (1 mg/ml).
as §2, §3

Structure (SMILES)	IC50 [1] [nM]	IC50 [2] [nM]	IC50 (wildtype Wnt pathway) [nM]	IC50 [3] [nM]
COc1ccc(C(=O)Nc2ccc(-c3ccccc3)cc2)cc1NC(=O)CN1CCOCC1 [Example 1, N-(biphenyl-4-yl)-4-methoxy-3-[(morpholin-4-ylacetyl)amino]benzamide]	157	≥ 50000	3300	≥ 50000
COc1ccc(C(=O)Nc2ccc(-c3ccccc3)cc2)cc1NC(=O)Cn1cccn1 [Example 2, N-(biphenyl-4-yl)-4-methoxy-3-[(1H-pyrazol-1-ylacetyl)amino]benzamide]	3200	≥ 50000	1480	50000
CC(C)(C(=O)Nc1cc(C(=O)Nc2ccc(-c3ccccc3)cc2)ccc1C(F)(F)F)n1cccn1 [Example 4, N-(biphenyl-4-yl)-3-{[2-methyl-2-(1H-pyrazol-1-yl)propanoyl]amino}-4-(trifluoromethyl)benzamide]	112	≥ 50000	400	8600
COc1ccc(C(=O)Nc2ccc(-c3ccccc3)cc2)cc1NC(=O)CN1C[C@@H]2C[C@H]1CO2 [Example 7, N-(biphenyl-4-yl)-4-methoxy-3-{[(1S,4S)-2-oxa-5-azabicyclo[2.2.1]hept-5-ylacetyl]amino}benzamide]	963	≥ 50000	820	10000
COc1ccc(C(=O)Nc2ccc(-c3ccccc3)cc2)cc1NC(=O)CN1CC2CCC(C1)O2 [Example 8, N-(biphenyl-4-yl)-4-methoxy-3-[(8-oxa-3-azabicyclo[3.2.1]oct-3-ylacetyl)amino]benzamide]	70	≥ 50000	270	≥ 50000
O=C(CN1CCOCC1)Nc1cc(C(=O)Nc2ccc(-c3ccccc3)cc2)ccc1C(F)(F)F [Example 9, N-(biphenyl-4-yl)-3-[(morpholin-4-ylacetyl)amino]-4-(trifluoromethyl)benzamide]	40	≥ 50000	120	≥ 50000
COC(=O)c1ccc(C(=O)Nc2ccc(-c3ccccc3)cc2)cc1NC(=O)CN1CCOCC1 [Example 12, methyl 4-(biphenyl-4-ylcarbamoyl)-2-[(morpholin-4-ylacetyl)amino]benzoate]	40	≥ 50000	440	≥ 50000
O=C(CN1CCOCC1)Nc1cc(C(=O)Nc2ccc(-c3ccccc3)cc2)ccc1Br [Example 13, N-(biphenyl-4-yl)-4-bromo-3-[(morpholin-4-ylacetyl)amino]benzamide]	91	≥ 50000	500	12000
CC(C(=O)Nc1cc(C(=O)Nc2ccc(-c3ccccc3)cc2)ccc1C(F)(F)F)N1CCOCC1 (stereo not shown) [Example 14, N-(biphenyl-4-yl)-3-{[2-(morpholin-4-yl)propanoyl]amino}-4-(trifluoromethyl)benzamide]	27	≥ 50000	240	7000
C[C@@H](C(=O)Nc1cc(C(=O)Nc2ccc(-c3ccccc3)cc2)ccc1C(F)(F)F)N1CCOCC1 [Example 15, N-(biphenyl-4-yl)-3-{[(2S)-2-(morpholin-4-yl)propanoyl]amino}-4-(trifluoromethyl)benzamide]	29.6	39500	100	4000
C[C@H](C(=O)Nc1cc(C(=O)Nc2ccc(-c3ccccc3)cc2)ccc1C(F)(F)F)N1CCOCC1 [Example 16, N-(biphenyl-4-yl)-3-{[(2R)-2-(morpholin-4-yl)propanoyl]amino}-4-(trifluoromethyl)benzamide]	17.9	≥ 50000	26	7900
CC(C)(C(=O)Nc1cc(C(=O)Nc2ccc(-c3ccccc3)cc2)ccc1C(F)(F)F)N1CCOCC1 [Example 17, N-(biphenyl-4-yl)-3-{[2-methyl-2-(morpholin-4-yl)propanoyl]amino}-4-(trifluoromethyl)benzamide]	240	≥ 50000	290	33000
N#Cc1ccc(C(=O)Nc2ccc(-c3ccccc3)cc2)cc1NC(=O)CN1CCOCC1 [Example 18, N-(biphenyl-4-yl)-4-cyano-3-[(morpholin-4-ylacetyl)amino]benzamide]	58.7	≥ 50000	690	19000
O=C(CN1CCOCC1)Nc1cc(C(=O)Nc2ccc(-c3ccccc3)cc2)ccc1-c1ccco1 [Example 20, N-(biphenyl-4-yl)-4-(2-furyl)-3-[(morpholin-4-ylacetyl)amino]benzamide]	62.5	≥ 50000	120	≥ 50000
CNC(=O)c1ccc(C(=O)Nc2ccc(-c3ccccc3)cc2)cc1NC(=O)CN1CCOCC1 [Example 22, N^4-(biphenyl-4-yl)-N^1-methyl-2-[(morpholin-4-ylacetyl)amino]terephthalamide]	55.2	≥ 50000	77	≥ 50000
O=C(CN1CCOCC1)Nc1cc(C(=O)Nc2ccc(-c3ccccc3)cc2)ccc1OC(F)(F)F [Example 23, N-(biphenyl-4-yl)-3-[(morpholin-4-ylacetyl)amino]-4-(trifluoromethoxy)benzamide]	32	≥ 50000	38	≥ 50000
CC(C)Oc1ccc(C(=O)Nc2ccc(-c3ccccc3)cc2)cc1NC(=O)CN1CCOCC1 [Example 25, N-(biphenyl-4-yl)-4-isopropoxy-3-[(morpholin-4-ylacetyl)amino]benzamide]	43.7	≥ 50000	120	≥ 50000
CCOc1ccc(C(=O)Nc2ccc(-c3ccccc3)cc2)cc1NC(=O)CN1CCOCC1 [Example 26, N-(biphenyl-4-yl)-4-ethoxy-3-[(morpholin-4-ylacetyl)amino]benzamide]	63.7	≥ 50000	970	≥ 50000
COc1ccc(NC(=O)c2ccc(-c3ccccc3)cc2)cc1NC(=O)Cn1cccn1 [Example 27, N-{4-methoxy-3-[(1H-pyrazol-1-ylacetyl)amino]phenyl}biphenyl-4-carboxamide]	1200	23000	700	9300
COc1ccc(NC(=O)c2ccc(-c3ccccc3)cc2)cc1NC(=O)C(C)(C)N1CCOCC1 [Example 28, N-(4-methoxy-3-{[2-methyl-2-(morpholin-4-yl)propanoyl]amino}phenyl)biphenyl-4-carboxamide]	1790	≥ 50000	2400	≥ 50000
C[C@@H](C(=O)Nc1cc(NC(=O)c2ccc(-c3ccccc3)cc2)ccc1F)N1CCOCC1 [Example 30, N-(4-fluoro-3-{[(2S)-2-(morpholin-4-yl)propanoyl]amino}phenyl)biphenyl-4-carboxamide]	1640	≥ 50000	920	9200
COc1ccc(NC(=O)c2ccc(-c3ccccc3)cc2)cc1NC(=O)CN1CC2CCC(C1)O2 [Example 32, N-{4-methoxy-3-[(8-oxa-3-azabicyclo[3.2.1]oct-3-ylacetyl)amino]phenyl}biphenyl-4-carboxamide]	170	≥ 50000	520	17000
